Measured values as given in patent US11324767B2, “Drug combination treatments using bone-targeting therapeutics for bone and bone-related disease” (MBC Pharma, Inc., priority 2017, dated 2022).
Where two headings read alike, the source gives them in different places.

Tests used:
[1] = in vivo MicroCT of bone in OS mouse model; conditions: in vivo MicroCT 22 days after starting treatment; 6 mg/kg IB or 14 mg/kg GEM-IB
Procedure: To ensure the health of mice throughout a longer study, doses were reduced to 6 mg/kg IB and equimolar doses of GEM-IB (14 mg/kg) and GEM (6 mg/kg) with 15 mg/kg DTX. Mice were implanted with the 143B-luc cells via intratibial injection and treatment started 4 days after implantation.

[2] = tolerability in mice (weight loss, nephrotoxicity)
Procedure: (§1) 143B-luc cells were then implanted into nude mice via intratibial injection, creating an orthotopic model for OS. The presence and growth of tumors was confirmed with in vivo imaging (Xenogen). Mice (N=8/treatment group) were then treated with 60 mg/kg GEM twice weekly and 15 mg/kg DTX once weekly, alone or in combination (15 mg/kg DTX with 20, 40 or 60 mg/kg GEM) and monitored for weight loss and tumor growth.
(§2) Tolerability for IB and GEM-IB was tested in a mouse model system. […] To ensure the health of mice throughout a longer study, doses were reduced to 6 mg/kg IB and equimolar doses of GEM-IB (14 mg/kg) and GEM (6 mg/kg) with 15 mg/kg DTX. Mice were implanted with the 143B-luc cells via intratibial injection and treatment started 4 days after implantation.
(§3) Mice were then treated with GEM-IB, GEM-IB with DTX, or the individual agents of GEM, DTX, or IB.

143B-luc = test: cell culture treatment of human OS cell line 143B-luc (IC50, Bliss analysis)
Procedure: This was determined in culture with a human OS cell line—143B-luc (143B cells were transfected to express luciferase (luc) for use in a mouse model system).

143B-luc cells = test: orthotopic OS model: Kaplan-Meier survival until euthanasia due to large tumor size; conditions: euthanized when largest tumor-laden leg diameter reached 10 mm above normal leg diameter (FIG. 4)
Description: Mice were euthanized when largest tumor-laden leg diameter reached 10 mm above normal leg diameter. […] Mice euthanized for weight loss are not indicated as deaths in this chart, and are indicated as tick marks on day euthanized.

[3] = tested on: prostate cancer induced bone disease; test: in vivo model of prostate cancer induced bone disease
Procedure: (§4) MBC-11 was tested in recently completed phase I clinical trials in patients with CIBD.

[4] = MTD and tolerability of GEM-IB dosing regimens; format: in vivo
Description: The MTD of the conjugate of Gemcitabine-to-Ibandronate is lower than that of MBC-1. Therefore, a conjugate of Gemcitabine-to-Ibandronate can be administered at or below 5/mg/kg/day via a 2-hour infusion for up to 5 consecutive days and Xofigo administered at or below its standard of care dosing regimen.

[5] = mouse, in vivo
Procedure: as §1, §2, §3

[6] = clinically established MTD of MBC-11; format: in vivo, Human; conditions: 2-hour infusion for up to 5 consecutive days
Procedure: The current clinically established MTD of MBC-11 indicates the method should be used where MBC-11 is administered at or below 5/mg/kg/day via a 2-hour infusion for up to 5 consecutive days and Xofigo is administered at or below the standard of care dosing regimen.

bone lesions = test: phase I clinical trials of MBC-11 in patients with CIBD, bone lesions imaged by 18F-FDG-PET/CT; conditions: 15 patients, after MBC-11 therapy
Procedure: as §4

[7] = 60 mg/kg GEM twice weekly alone, 15 mg/kg DTX once weekly alone, or 15 mg/kg DTX with 20 or 40 mg/kg GEM, N=8/group

In the case of `CCCCCN(C)CCC(O)(P(=O)(O)O)P(=O)(O)O` [IB, ibandronate], the bone volume density [1] is reported as “high”, the trabecular number [1] is reported as “high” and the weight loss ([2]; IB 12 mg/kg twice weekly) is reported as “only minimal weight loss”. For the same molecule, the nephrotoxicity ([2]; at higher levels) was “possible nephrotoxicity” and the tolerability ([2]; at lower doses) was “well tolerated”.
In the case of `CC(=O)O[C@@]12CO[C@@H]1C[C@H](O)[C@@]1(C)C(=O)[C@H](O)C3=C(C)[C@@H](OC(=O)[C@H](O)[C@@H](NC(=O)OC(C)(C)C)c4ccccc4)C[C@@](O)([C@@H](OC(=O)c4ccccc4)[C@H]21)C3(C)C` [DTX, docetaxel], the IC50 (143B-luc; 143B-luc cells in culture, individual drug agent) is reported as 72 nM, the “reduction of IC50 of DTX” value (143B-luc; in the presence of 1 nM GEM versus DTX alone) is reported as 600 fold and the IC50 (143B-luc; read-out: IC50 of DTX in the presence of GEM, 143B-luc cells in culture, in the presence of 1 nM GEM) is reported as 0.12 nM. The weight loss [2, 7] was “did not exhibit any weight loss”.
For `Nc1ccn([C@@H]2O[C@H](CO)[C@@H](O)C2(F)F)c(=O)n1` [GEM, Gemcitabine], the IC50 (143B-luc; Homo sapiens) was 9 nM and the weight loss [2, 7] was “did not exhibit any weight loss”.
For `CCCCCN(C)CCC(O)(P(=O)(O)O)P(=O)(O)OP(=O)(O)OC[C@H]1O[C@@H](n2ccc(N)nc2=O)C(F)(F)[C@@H]1O` (stereo partly shown) [GEM-IB], the “day after treatment initiation from which mice were sacrificed” value (143B-luc cells) was 28 days, the bone volume density [1] was “high” and the trabecular number [1] was “high”. The “activity compared to GEM-etidronate (GEM-ET), MBC-11 and cytarabine-IB” value ([3]; in vivo) was “more active”, the metastases after treatment ([3]; in vivo) was “significantly reduced” and the survival ([3]; study not designed for a survival endpoint) was “improved survival trend”. For the same molecule, the tolerability ([4]; Monday, Wednesday and Friday dosing for three weeks at twice the 6 mg/kg daily dose) was “well tolerated”, the MTD ([4]; dosing for five sequential days) was 6 mg/kg/day and the “MTD compared with MBC-1” value ([4]; in vivo) was “lower”. For the same molecule, the nephrotoxicity [5] was “possible nephrotoxicity” and the tolerability [5] was “well tolerated”.
In the case of `CC(O)(P(=O)(O)O)P(=O)(O)OP(=O)(O)OC[C@H]1O[C@@H](n2ccc(N)nc2=O)[C@@H](O)[C@@H]1O` (stereo partly shown) [MBC-11], the “dose indicated by the clinically established MTD” value [6] is reported as “up to 5 /mg/kg/day”, the “bone lesions with a significant reduction (>25%) in glucose avidity” value (bone lesions; 206 bone lesions imaged (18F-FDG-PET/CT)) is reported as 111 lesions and the “bone lesions significantly reduced in activity” value (bone lesions; 206 bone lesions imaged) is reported as 53.8%.
